Test results as given in US12233041B2, “Disulfonate stilbenes for use in the treatment of proliferative diseases” (UNIVERSITÉ DE NANTES, priority 2018, dated 2025).

What was measured:
[1] = test system: DU145 prostate cancer cell line; assay: Cytotoxicity, MTT assay; type: cell-based; details: DU-145 cells, 50 μM for 3 days
Protocol: (§1) Prostate cancer cells DU145 (carcinoma) and fibroblast cells were cultured in […] (RPMI 1640 medium) supplemented with 10% fetal bovine serum (FBS) and 1% penicillin/streptomycin, and were grown at 37° C. with 5% CO2.
(§2) Tested molecules were dissolved and stored in DMSO at 20 mM concentration.
(§3) DU145 and fibroblast cells were seeded at 5×10^3 cells/well in 100 μl of medium in standard 96-well plates. The plates were incubated 24 h at 37° C. at an atmosphere of 5% CO2. Molecule solutions diluted in DMSO were serially diluted by RPMI 1640 medium from 60 μM to 0.02 μM and were added in 100 μl RPMI in quadruplicate.
After 72 h of incubation, 20 μL of 5 mg mL-1 MTT was added to each well according to the manufacturer's instructions. After 2 h of incubation at 37° C., the medium was removed, and 200 μl DMSO was added to each well to dissolve formazan crystals. The absorbance at 540 nm of each well was then monitored using an EnSpire multimode plate reader. Absorbance of each well was expressed as percentage of the control (wells with untreated cells), and the 50% inhibitory concentration (IC50) was determined. […] All data were expressed as the mean values±standard deviation. The IC50 values were calculated by linear regression analysis of the concentration-log response curves using the software GraphPad InStat 3.0. […]

[2] = test system: RAD51 foci in DU-145 cells; assay: Rad51 foci quantification by immunofluorescence; type: cell-based; details: DU-145, cisplatin 30 μM for 1 hour, fixed after 18 h
Protocol: DU-145 cells were grown on coverslips (Life Technologies) at a density of 5×10^3 cells per well in medium (RPMI) supplemented with 10% fetal bovine serum (Gibco-Invitrogen). Cells were treated with Cisplatin at 30 μM for 1 hour in presence or in absence of RAD51 inhibitor B-2 at 20 μM, and then the medium was replaced with molecule-free medium. After 18 h, cells were washed once in PBS for 5 min and fixed with ethanol absolute for 25 min.
The fixed cells were incubated for 1 h in the PBS buffer containing 1:1000 diluted anti-RAD51 antibody at room temperature. After three 5-min washes in PBS, slides were incubated with PBS solution containing the secondary antibody conjugated with AlexaFluor 555 ([…]) for 45 min in dark room. […] The images were recorded with NIS Element software (Version 3.6, Nikon, Tokyo, Japan). The quantification of RAD51 foci was processed with a program derived from Fiji-ImageJ software (NIH, Bethesda, Maryland, USA). […]
The treatment with Cisplatin alone induces a high level of RAD51 foci, whereas this level is decreased when the treatment is associated with B-2 20 μM. After the quantification of the number of RAD51 foci per cell, the number of cells containing more than 20 RAD51 foci was determined.

DU-145 cell line = assay: Clonogenicity test, sensitizing effect with an antineoplastic drug; type: cell-based; details: DU-145, cisplatin alone; read-out: IC50 (clonogenic survival, cisplatin)
Protocol: Clonogenicity tests are carried out against several model cell lines derived from cancer including prostate cancer (DU-145). Cells are exposed to an anti-cancer agent targeting DNA (cisplatin or camptothecin). Damaged cells are counted and seeded in the presence or in the absence of B-2 in triplicate culture plates. After about two weeks of incubation at 37° C. the number of clones formed is counted. Each cell capable of repairing its lesions will then form a clone. After counting, the percentage of survival will be calculated relative to the control condition for which it is considered that there is 100% survival.
The main interest of RAD51 protein inhibitors is the sensitization of chemo-resistant or radio-resistant cancerous cell lines. Clonogenicity evaluation was carried out on the DU-145 cell line treated with cisplatin treatment in the presence or in the absence of disulfonate stilbene B-2 (RAD51 protein inhibitor).
DU-145 cell line was treated with camptothecin in the presence or in the absence of disulfonate stilbene B-2 (RAD51 protein inhibitor) and the clonogenic cell survival was determined.

HsRad51 = molecular target: T1, HsRad51 (Homo sapiens, UniProt Q06609); assay: RAD51 oligomerization by SDS-PAGE gel after crosslink; type: biochemical; details: 2.5 μM HsRad51, disuccinimidyl suberate crosslink, SDS-PAGE/Western blot; FIG. 1
T1 sequence (Q06609 1-339): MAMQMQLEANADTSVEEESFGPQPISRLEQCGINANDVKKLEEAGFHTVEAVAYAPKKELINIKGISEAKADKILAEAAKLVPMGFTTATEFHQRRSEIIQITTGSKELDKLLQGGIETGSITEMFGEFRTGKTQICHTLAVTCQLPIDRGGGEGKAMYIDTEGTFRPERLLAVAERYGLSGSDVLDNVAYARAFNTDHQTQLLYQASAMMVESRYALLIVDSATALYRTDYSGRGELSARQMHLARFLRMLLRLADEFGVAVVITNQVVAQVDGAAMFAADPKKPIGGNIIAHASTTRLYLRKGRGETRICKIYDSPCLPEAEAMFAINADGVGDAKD
Protocol: The reaction was performed at room temperature. 2.5 μm HsRad51 was incubated with the indicated concentrations of tested compounds for 10 min in a buffer containing 20 mm sodium phosphate, 50 mm NaCl, 1 mm MgCl 2, and 1 mm ATP. The cross-linking reactions were initiated by the addition of disuccinimidyl suberate (50 μm) and allowed to proceed for 30 min. Reactions were quenched by the addition of Tris-HCl (pH 7.5, final concentration: 50 mm) followed by subsequent incubations for 15 min. The products were then separated by 12% SDS polyacrylamide gel electrophoresis and detected by Western blot with mouse monoclonal anti-Rad51 antibody (NeoMarkers) and anti-mouse Alexa-Fluor 700-conjugated secondary antibody (Molecular Probes, Eugene, OR). The cross-linked dimer was quantified by an Odyssey Infrared Imaging System scanner (Li-Cor Biosciences) (Martinez, S. F. et al., “Targeting human Rad51 by specific DNA aptamers induces inhibition of homologous recombination”, Biochimie, December 2010, Vol. 92, No. 12, pp. 1832-1838).
The SDS-PAGE electrophoresis after crosslink maintains and immobilizes the RAD51 protein complexes and thus allows visualization of the degree of oligomerization (polymer formation) of the RAD51 protein. The effect of RAD51 protein inhibitors B-1, B-2, B-3, DIDS and X-4 on this key step of RAD51 protein recombinase activity has thus been evaluated. The results are presented on FIG. 1.

Rad51 = molecular target: T2, Rad51 (Homo sapiens, UniProt Q06609); assay: DNA invasion by D-loop assay (strand exchange); type: biochemical; details: 0.5 μM Rad51, 1 μM 100-ssDNA, 37° C.; read-out: IC50 (RAD51 protein inhibition, D-loop formation)
T2 sequence (Q06609 1-339): T1 sequence (Q06609 1-339)
Protocol: Labeled 100-ssDNA** (1 μM) was incubated with 0.5 μM Rad51 in presence or absence of the indicated amounts of the corresponding molecule in 10 μL of standard reaction buffer containing 20 mM Tris-HCl (pH 8), 1 mM ATP, 1 mM DTT, 1 mM CaCl2) at 37° C. for 20 min. The reaction was initiated by adding supercoiled pPB4.3 DNA (200 μM in bp). After incubation of 30 min at 37° C., the reactions were stopped and deproteinized by a stop solution (10 mM Tris-HCl pH 8, 10 mM MgCl2, 1% SDS, and 1 mg/mL proteinase K. The reaction mixtures were further incubated for 15 min at 37° C. After adding 5-fold loading dye (0.05% bromophenol blue, 8% glycerol, 1 mM EDTA), the reaction products were separated by electrophoresis on 1% agarose gel. The electrophoresis was carried out in 0.5×TAE buffer (20 mM Tris, 10 mM acetic acid and 1 mM EDTA) at 100 V for 2 h. The labeled products (100-ssDNA** and D-loop) were visualized and quantified by the detection of the IRD-700 dye with the 700 nm infrared fluorescent detection channel of an Odyssey Infrared Imager (LI-COR) (Normand, A. et al., Biochemical Pharmacology, October 2014, Vol. 91, No. 3, pp. 293-300).
The “D-loop” in vitro test allows the quantification of the formation of the strand exchange structure (D-loop) and thus the determination of the inhibitory power of a molecule during the strand exchange step of the recombinase mechanism. IC50 measuring the RAD51 protein inhibition in presence of compounds A-1 to A-5, […] and DIDS are then calculated.

fibroblast cells = assay: Cytotoxicity, MTT assay; type: cell-based; details: 50 μM for 3 days, FIG. 7
Protocol: as §1, §2, §3
After 72 h of incubation, 20 μL of 5 mg mL-1 MTT was added to each well according to the manufacturer's instructions. After 2 h of incubation at 37° C., the medium was removed, and 200 μl DMSO was added to each well to dissolve formazan crystals. The absorbance at 540 nm of each well was then monitored using an EnSpire multimode plate reader. Absorbance of each well was expressed as percentage of the control (wells with untreated cells), and the 50% inhibitory concentration (IC50) was determined. […] All data were expressed as the mean values±standard deviation. The IC50 values were calculated by linear regression analysis of the concentration-log response curves using the software GraphPad InStat 3.0.

O=c1c2ccccc2nc(/C=C/c2cccnc2)n1Cc1ccccc1 [BPQ, (E)-3-benzyl-2-(2-(pyridin-3-yl)vinyl)quinazolin-4(3H)-one]
mortality of cells [1]: 90%
cytotoxic effect ([1]; FIG. 6): high cytotoxicity

N.N.[Cl][Pt][Cl] [Cisplatin, reference compound]
level of RAD51 foci [2]: high level
IC50 (DU-145 cell line): 33 µM

O=S(=O)(O)c1cc(N=C=S)ccc1C=Cc1ccc(N=C=S)cc1S(=O)(=O)O [DIDS, 4,4′-Diisothiocyano-2,2′-stilbene disulfonic acid, reference compound]
oligomerization state of RAD51 protein (HsRad51): reduction
IC50 (Rad51): 1 µM
cytotoxic effect (fibroblast cells): has a cytotoxic effect
